Source: patent publication US20230203004A1, “RSV INHIBITING 3-SUBSTITUTED QUINOLINE AND CINNOLINE DERIVATIVES” (Janssen Sciences Ireland Unlimited Company, priority 2020, published 2023)

Key:
[1] = test system: rgRSV224 virus; assay: Antiviral activity: rgRSV224 (GFP) replication in HeLa cells; type: cell-based, respiratory syncytial virus (RSV); details: human respiratory syncytial virus, HeLa, 72 h, read-out: RSV HELA EC50, HeLa cells, rgRSV224 MOI = 1, GFP expression three days post-virus exposure; averaged data of several repeat experiments
Procedure: (§1) Black 384-well clear-bottom microtiter plates (Corning, Amsterdam, The Netherlands) were filled via acoustic drop ejection using the echo liquid handler (Labcyte, Sunnyvale, California). 200 nL of compound stock solutions (100% DMSO) were transferred to the assay plates. 9 serial 4-fold dilutions of compound were made, creating per quadrant the same compound concentration. The assay was initiated by adding 10 µL of culture medium to each well (RPMI medium without phenol red, 10% FBS-heat inactivated, 0.04% gentamycin (50 mg/mL). All addition steps are done by using a multidrop dispenser (Thermo Scientific, Erembodegem, Belgium). Next, rgRSV224 virus (MOI = 1) diluted in culture medium was added to the plates. rgRSV224 virus is an engineered virus that includes an additional GFP gene (Hallak LK, Spillmann D, Collins PL, Peeples ME. Glycosaminoglycan sulfation requirements for respiratory syncytial virus infection; Journal of virology (2000), 74(22), 10508-13) and was in-licensed from the NIH (Bethesda, MD, USA). Finally, 20 µL of a HeLa cell suspension (3,000 cells/well) were plated. Medium, virus- and mock-infected controls were included in each test. The wells contain […] DMSO per volume. Cells were incubated at 37° C. in a 5% CO2 atmosphere. Three days post-virus exposure, viral replication was quantified by measuring GFP expression in the cells by an in house developed MSM laser microscope (Tibotec, Beerse, Belgium). The EC50 was defined as the 50% inhibitory concentration for GFP expression. In parallel, compounds were incubated for three days in a set of white 384-well microtiter plates (Corning) and the cytotoxicity of compounds in HeLa cells was determined by measuring the ATP content of the cells using the ATPlite kit (Perkin Elmer, Zaventem, Belgium) according to the manufacturer’s instructions. The CC50 was defined as the 50% concentration for cytotoxicity.

[2] = Cytotoxicity in HeLa cells (ATP content, ATPlite kit); type: cell-based; details: human, TOX HELA CC50
Procedure: as §1

COc1cc(C(=O)NC[C@](O)(c2cc(C(C)(C)O)c(Cl)c(-c3ccc(F)cc3)n2)C(F)(F)F)cc2cc(C)c(F)nc12 [compound 210, (-)-N-{2-[5-Chloro-6-(4-Fluorophenyl)-4-(2-Hydroxypropan-2-yl)Pyridin-2-yl]-3,3,3-Trifluoro-2-Hydroxypropyl}-2-Fluoro-8-Methoxy-3-Methylquinoline-6-Carboxamide]
EC50 [1]: 0.0029 µM | CC50 at 3 days [2]: 23 µM

COc1cc(C(=O)NC[C@](O)(c2nc(-c3ccc(F)cc3)c(F)c(C(C)(C)O)c2F)C(F)(F)F)cc2cc(C)c(F)nc12 [compound 211, (-)-N-{2-[3,5-Difluoro-6-(4-Fluorophenyl)-4-(2-Hydroxypropan-2-yl)Pyridin-2-yl]-3,3,3-Trifluoro-2-Hydroxypropyl}-2-Fluoro-8-Methoxy-3-Methylquinoline-6-Carboxamide]
EC50 [1]: 0.0028 µM | CC50 at 3 days [2]: 29 µM

COc1cc(C(=O)NC[C@](O)(c2nc(-c3ccc(F)cc3)c(Cl)c(C(C)(C)O)c2F)C(F)(F)F)cc2cc(C)c(F)nc12 [compound 212, (-)-N-{2-[5-Chloro-3-Fluoro-6-(4-Fluorophenyl)-4-(2-Hydroxypropan-2-yl)Pyridin-2-yl]-3,3,3-Trifluoro-2-Hydroxypropyl}-2-Fluoro-8-Methoxy-3-Methylquinoline-6-Carboxamide]
EC50 [1]: 0.0071 µM | CC50 at 3 days [2]: 58 µM

COc1cc(C(=O)NC[C@](O)(c2cc(C(C)(C)O)c(Cl)c(-c3ccc(F)cc3)n2)C2CC2)cc2cc(C)c(F)nc12 [compound 215]
EC50 [1]: 0.00087 µM | CC50 at 3 days [2]: 20 µM

COc1cc(C(=O)NC[C@](O)(c2cc(C(C)(C)O)c(F)c(-c3ccc(F)cc3)n2)C2CC2)cc2cc(C)c(F)nc12 [compound 216, (-)-N-{2-Cyclopropyl-2-[5-Fluoro-6-(4-Fluorophenyl)-4-(2-Hydroxypropan-2-yl)Pyridin-2-yl]-2-Hydroxyethyl}-2-Fluoro-8-Methoxy-3-Methylquinoline-6-Carboxamide]
EC50 [1]: 0.00062 µM | CC50 at 3 days [2]: 21 µM

COc1cc(C(=O)NC[C@](O)(c2cc(C(C)(C)O)c(F)c(-c3ccc(C(F)(F)F)cc3)n2)C2CC2)cc2cc(C)c(F)nc12 [compound 217, N-[(-)Cyclopropyl{5-Fluoro-4-(2-Hydroxypropanyl)-6-[4-(Trifluoromethyl)Phenyl]-Pyridinyl}Hydroxyethyl]Fluoro-8-Methoxy-3-Methylquinoline-6-Carboxamide]
EC50 [1]: 0.0013 µM | CC50 at 3 days [2]: 14 µM

COc1cc(C(=O)NC[C@](O)(c2cc(C(C)(C)O)c(F)c(-c3ccc(F)c(F)c3)n2)C2CC2)cc2cc(C)c(F)nc12 [compound 218, (-)-N-{2-Cyclopropyl-2-[6-(3,4-Difluorophenyl)-5-Fluoro-4-(2-Hydroxypropan-2-yl)Pyridin-2-yl]-2-Hydroxyethyl}-2-Fluoro-8-Methoxy-3-Methylquinoline-6-Carboxamide]
EC50 [1]: 0.0012 µM | CC50 at 3 days [2]: 16 µM

Cc1cnc2c(OC3CC3)cc(C(=O)NC[C@](O)(c3cc(C(C)(C)O)c(Cl)c(-c4ccc(F)cc4)n3)C(F)(F)F)cc2c1 [compound 219, (-)-N-{2-[5-Chloro-6-(4-Fluorophenyl)-4-(2-Hydroxypropan-2-yl)Pyridin-2-yl]-3,3,3-Trifluoro-2-Hydroxypropyl}-8-(Cyclopropyloxy)-3-Methylquinoline-6-Carboxamide]
EC50 [1]: 0.005 µM | CC50 at 3 days [2]: 27 µM

Cc1cnc2c(OC3CC3)cc(C(=O)NC[C@](O)(c3nc(-c4ccc(F)cc4)c(F)c(C(C)(C)O)c3F)C(F)(F)F)cc2c1 [compound 220, (-)(Cyclopropyloxy)-N-{2-[3,5-Difluoro-6-(4-Fluorophenyl)-4-(2-Hydroxypropan-2-yl)Pyridin-2-yl]-3,3,3-Trifluoro-2-Hydroxypropyl}-3-Methylquinoline-6-Carboxamide]
EC50 [1]: 0.0024 µM | CC50 at 3 days [2]: 36 µM

Cc1cnc2c(OC3CC3)cc(C(=O)NC[C@](O)(c3nc(-c4ccc(F)cc4)c(Cl)c(C(C)(C)O)c3F)C(F)(F)F)cc2c1 [compound 221, (-)-N-{2-[5-Chloro-3-Fluoro-6-(4-Fluorophenyl)-4-(2-Hydroxypropan-2-yl)Pyridin-2-yl]-3,3,3-Trifluoro-2-Hydroxypropyl}-8-(Cyclopropyloxy)-3-Methylquinoline-6-Carboxamide]
EC50 [1]: 0.0093 µM | CC50 at 3 days [2]: 65 µM

Cc1cnc2c(OC3CC3)cc(C(=O)NC[C@](O)(c3cc(C(C)(C)O)c(Cl)c(-c4ccc(F)cc4)n3)C3CC3)cc2c1 [compound 222, (-)-A-{2-[5-Chloro-6-(4-Fluorophenyl)-4-(2-Hydroxypropan-2-yl)Pyridin-2-yl]-2-Cyclopropyl-2-Hydroxyethyl}-8-(Cyclopropyloxy)-3-Methylquinoline-6-Carboxamide]
EC50 [1]: 0.0015 µM | CC50 at 3 days [2]: 27 µM

Cc1cnc2c(OC3CC3)cc(C(=O)NC[C@](O)(c3cc(C(C)(C)O)c(F)c(-c4ccc(F)cc4)n3)C3CC3)cc2c1 [compound 223, (-)-N-{2-Cyclopropyl-2-[5-Fluoro-6-(4-Fluorophenyl)-4-(2-Hydroxypropan-2-yl)Pyridin-2-yl]-2-Hydroxyethyl}-8-(Cyclopropyloxy)-3-Methylquinoline-6-Carboxamide]
EC50 [1]: 0.00063 µM | CC50 at 3 days [2]: 21 µM

Cc1cnc2c(OC3CC3)cc(C(=O)NC[C@](O)(c3cc(C(C)(C)O)c(F)c(-c4ccc(C(F)(F)F)cc4)n3)C3CC3)cc2c1 [compound 224]
EC50 [1]: 0.0017 µM | CC50 at 3 days [2]: 15 µM

Cc1cnc2c(OC3CC3)cc(C(=O)NC[C@](O)(c3cc(C(C)(C)O)c(F)c(-c4ccc(F)c(F)c4)n3)C3CC3)cc2c1 [compound 225, (-)-N-{2-Cyclopropyl-2-[6-(3,4-Difluorophenyl)-5-Fluoro-4-(2-Hydroxypropan-2-yl)Pyridin-2-yl]-2-Hydroxyethyl}-8-(Cyclopropyloxy)-3-Methylquinoline-6-Carboxamide]
EC50 [1]: 0.00059 µM | CC50 at 3 days [2]: 15 µM

COc1cc(C(=O)NC[C@](O)(c2cc(C(C)(C)O)c(Cl)c(-c3ccc(F)cc3)n2)C2CC2)cc2cc(C(F)F)cnc12 [compound 226, (-)-N-{2-[5-Chloro-6-(4-Fluorophenyl)-4-(2-Hydroxypropan-2-yl)Pyridin-2-yl]-2-Cyclopropyl-2-Hydroxyethyl}-3-(Difluoromethyl)-8-Methoxyquinoline-6-Carboxamide]
EC50 [1]: 0.0024 µM | CC50 at 3 days [2]: 14 µM

COc1cc(C(=O)NC[C@](O)(c2cc(C(C)(C)O)c(F)c(-c3ccc(F)cc3)n2)C2CC2)cc2cc(C(F)F)cnc12 [compound 227, N-{(-)Cyclopropyl[5-Fluoro-6-(4-Fluorophenyl)-4-(2-Hydroxypropanyl)Pyridinyl]Hydroxyethyl}-3-(Difluoromethyl)-8-Methoxyquinoline-6-Carboxamide]
EC50 [1]: 0.0011 µM | CC50 at 3 days [2]: 15 µM

COc1cc(C(=O)NC[C@](O)(c2nc(-c3ccc(F)cc3)c(F)c(C(C)(C)O)c2F)C(F)(F)F)cc2cc(C3CC3)cnc12 [compound 228, (-)Cyclopropyl-N-{2-[3,5-Difluoro-6-(4-Fluorophenyl)-4-(2-Hydroxypropan-2-yl)Pyridin-2-yl]-3,3,3-Trifluoro-2-Hydroxypropyl}-8-Methoxyquinoline-6-Carboxamide]
EC50 [1]: 0.013 µM | CC50 at 3 days [2]: 10 µM

COc1cc(C(=O)NC[C@](C)(O)c2cc(C(C)(C)O)c(Cl)c(-c3ccc(F)cc3)n2)cc2cc(C)nnc12 [compound 229, (-)-N-{2-[5-Chloro-6-(4-Fluorophenyl)-4-(2-Hydroxypropan-2-yl)Pyridin-2-yl]-2-Hydroxypropyl}-8-Methoxy-3-Methylcinnoline-6-Carboxamide]
EC50 [1]: 0.00081 µM | CC50 at 3 days [2]: 44 µM

COc1cc(C(=O)NC[C@@](C)(O)c2cc(C(C)(C)O)c(Cl)c(-c3ccc(F)cc3)n2)cc2cc(C)nnc12 [compound 230]
EC50 [1]: 0.12 µM | CC50 at 3 days [2]: 57 µM

COc1cc(C(=O)NC[C@](O)(c2cc(C(C)(C)O)c(Cl)c(-c3ccc(F)cc3)n2)C(F)(F)F)cc2cc(C)nnc12 [compound 232, (-)-N-{2-[5-Chloro-6-(4-Fluorophenyl)-4-(2-Hydroxypropan-2-yl)Pyridin-2-yl]-3,3,3-Trifluoro-2-Hydroxypropyl}-8-Methoxy-3-Methylcinnoline-6-Carboxamide]
EC50 [1]: 0.0016 µM | CC50 at 3 days [2]: 24 µM

COc1cc(C(=O)NC[C@@](O)(c2cc(C(C)(C)NS(C)(=O)=O)c(Cl)c(-c3ccc(F)cc3)n2)C(F)(F)F)cc2cc(C)nnc12 [compound 233, (+)-N-{2-[5-Chloro-6-(4-Fluorophenyl)-4-{2-[(Methanesulfonyl)Amino]Propan-2-yl}Pyridin-2-yl]-3,3,3-Trifluoro-2-Hydroxypropyl}-8-Methoxy-3-Methylcinnoline-6-Carboxamide]
EC50 [1]: 0.4 µM | CC50 at 3 days [2]: 43 µM
